Measured values from US20260248774A1, “INHIBITORS OF BACTERIAL TYPE III SECRETION SYSTEM” (MICROBIOTIX, INC., priority 2022, published 2026).
≈ marks a conversion by molar mass, not a printed value. Read-outs that look alike come from different tables or passages of the source.

Legend:
[1] = tested on: P. aeruginosa T3SS-mediated secretion of ExoS-β-lactamase fusion protein; assay: Effector-β-lactamase (ExoS-βLA) reporter assay of T3SS-mediated secretion; format: cell-based, Pseudomonas aeruginosa; details: read-out: ExoS-BLA IC50
Source text: Effector-β-Lactamase (βLA) Reporter Assay of T3SS-Mediated Secretion with an Absorbency Signal.
A gene encoding the exoS promoter/regulatory region and an ExoS-β-lactamase (βLA) fusion protein (comprised of the full length P. aeruginosa T3SS effector ExoS fused in reading frame to the TEM-1 β-lactamase gene lacking secretion signal codons) was constructed by splicing by overlap extension PCR (SOE-PCR) (Choi and Schweizer, 2005, BMC Microbiol., 5:30), sequence confirmed, cloned into miniCTX and introduced into P. aeruginosa strain PAO1 to generate strains MDM1746 and MDM1838 as previously described for strain MDM1710 (Bowlin et al., 2014, Antimicrob Agents Chemother., 58:2211-2220). Secretion of ExoS-β-lactamase fusion protein following EGTA addition to induce the T3SS operons was detected by measuring the hydrolysis of the chromogenic β-lactamase substrate nitrocefin in clear 96-well microplates in a modification of a previously described assay (Lee, et al., 2007, Infect. Immun., 75:1089-98). Cells of strain MDM1746, or negative control MDM1838 (which fails to carry out T3SS secretion due to ΔpscF), were sub-cultured in the morning from overnight growths in LBG into 0.1 ml of LBGE with or without test compounds and grown for 150 min. Nitrocefin (100 μg/mL final) was added, and A490 measurements taken every minute for 15 min in a Victor^3V 1420 Multilabel HTS Counter (PerkinElmer). Slopes were calculated as a relative measure of the quantity of the effector-βLA fusion protein secreted and were absolutely dependent on induction with EGTA, and the presence of a functional pscF gene in the P. aeruginosa cells. Typical signal: background ratios were 6-10.

[2] = tested on: P. aeruginosa T3SS-mediated secretion (exoT-luxCDABE reporter strain MDM852); assay: Luciferase (exoT-lux) transcriptional reporter assay of T3SS-mediated secretion; format: cell-based, Pseudomonas aeruginosa
Source text: Luciferase Transcriptional Reporter Assay of T3SS-Mediated Secretion with a Luminescent Signal.
A transcriptional fusion of the Photorhabdus luminescens lux operon (luxCDABE) to P. aeruginosa PAO1 T3SS effector gene exoT (PA0044) was constructed and used to build strain MDM852 as described previously (Aiello et al., 2010, Antimicrob Agents Chemother, 54:1988-1999). Induction of T3SS operons by Ca^++ depletion due to EGTA addition results in secretion of the T3SS negative regulator ExsE and the production of high levels of T3SS components including the luxCDABE gene products, which results in luminescence that is easily detected by a microplate reader. Inhibition of T3SS-mediated secretion of the negative regulator ExsE by a small molecule inhibitor causes reduced production of luxCDABE gene products and reduced luminescence. For inhibitor IC50 testing, compounds were added to a 96-well microplate in a concentration dilution series. Reporter strain MDM852 was grown at 37° C. in LBG to OD600 ~0.025-0.05, transferred into the microplate (50 uL/well) containing test compounds and EGTA (5 uL of 0.1 M stock solution), which was covered with a translucent gas-permeable seal (Abgene, Inc., Cat. No. AB-0718). […] Plates were incubated at room temperature for 300 min. Then, luminescence was measured in an Envision Multilabel microplate reader (PerkinElmer). The screening window coefficient, Z′-factor (see Zhang, et al., 1999, J. Biomol. Screen., 4:67-73), defined as the ratio of the positive and negative control separation band to the signal dynamic range of the assay, averaged 0.7 for the assay.

[3] = tested on: T3SS-mediated translocation of ExoU by P. aeruginosa strain MDM1561 (PA99U) into CHO cells; assay: P. aeruginosa ExoU-dependent CHO cell killing assay for T3SS-mediated translocation; format: cell-based, Pseudomonas aeruginosa; details: for EC50: read-out: Translocation EC50; for potency of inhibition of T3SS-mediated translocation: assessment in text on Table 1
Source text: P. aeruginosa ExoU-Dependent CHO Cell Killing.

[4] = Mammalian cytotoxicity (CC50), MTS conversion; format: cell-based, human; details: human
Experimental: (§1) Determination of Mammalian Cytotoxicity.
(§2) Following incubation for 3 days at 37° C. in VP-SFM, cell viability was measured with the vital tetrazolium salt stain 3-(4,5-dimethylthiazol-2-yl)-2,5 diphenyltetrazolium bromide according to the manufacturer's instructions (Promega, Madison, Wisconsin). Values were determined in triplicate using dilutions of inhibitory compound from 100 μM to 0.2 μM.

[5] = Kinetic aqueous solubility (nephelometric assay); format: physicochemical; details: for Sol: Table 1; for solubility kinetic: kinetic from dmso stock, Table 9, kinetic solubility in water (nephelometric assay)
Source text: Solubility. The maximum aqueous solubility of analogs will be initially determined by nephelometry using a published method (44).

HeLa cells = assay: Mammalian cytotoxicity (CC50), MTS conversion; format: cell-based, human; details: assessment in text on Table 1
Experimental: as §1, §2

[6] = Single dose pharmacokinetic (PK) determination in mice; set-up: species or system CD-1 mice; details: in vivo
[7] = tested on: T3SS translocation, clinical isolates of Pseudomonas aeruginosa
[8] = read-out: LUX Sec IC50, Table 1
[9] = HeLa cells, Table 1, HeLa, read-out: Cytotox-HeLa CC50
[10] = Table 9, cytotoxicity vs. HeLa cells, read-out: Cytotox CC50

SMILES	IC50 ([1]; Table 1) [µM]	IC50 [2, 8] [µM]	EC50 ([3]; Table 1) [µM]	CC50 at 3 days [4, 10] [µM]	solubility kinetic [5] [µM]	also measured
CC(Oc1ccc(Cl)cc1Cl)C(=O)NCc1ccc2c(c1)OCO2 (stereo not drawn) [MBX-1641, N-(benzo[d][1,3]dioxol-5-ylmethyl)-2-(2,4-dichlorophenoxy)propanamide, reference compound]	10	4.7	15			IC50 ([1]; Table 6): 10 µM; IC50 ([2]; read-out: LUX IC50, Table 6): 4.7 µM; EC50 ([3]; Table 6): 15 µM
CCC(Oc1ncc(Cl)cc1Cl)C(=O)NCc1ccc2c(c1)OCO2 (stereo not drawn) [MBX-2263]	2	2.7	17			CC50 at 3 days [4, 9]: > 100 µM; Sol [5]: 25 µM; solubility for formulation ([5]; assessment in text on Table 1): not soluble enough
CCC(Oc1ncc(Cl)cc1Cl)C(=O)NCc1ccc(F)cc1 (stereo not drawn) [MBX-2264]	2	2	> 35			CC50 at 3 days [4, 9]: 85 µM; Sol [5]: 200 µM; potency of inhibition of T3SS-mediated translocation [3]: not quite potent enough
CCC(Oc1ncc(Cl)cc1Cl)C(=O)NCc1ccc2sccc2c1 (stereo not drawn) [MBX-2359, reference compound]	1.5	1.3				IC50 ([1]; Table 6): 1.5 µM; IC50 ([2]; read-out: LUX IC50, Table 6): 1.3 µM
CC(Oc1ccc(Cl)cc1Cl)C(=O)NCc1cc2ccccc2[nH]1 (stereo not drawn) [MBX-2624]	9	8.7	17			CC50 at 3 days [4, 9]: 9 µM; cytotoxicity (HeLa cells): exhibit cytotoxicity; Sol [5]: 100 µM
CC(Oc1ccc(Cl)cc1Cl)C(=O)NC(CO)c1ccc(F)cc1 (stereo not drawn) [MBX-2625]	5	7.1	22			
CC(Oc1ccc(Cl)cc1Cl)C(=O)NCC(O)c1ccc(F)cc1 (stereo not drawn) [MBX-2785]	15	18	25			potency of inhibition of T3SS-mediated translocation [3]: not quite potent enough
CC(=O)Nc1ccc(CCNC(=O)C(C)Oc2ccc(Cl)cc2Cl)cc1 (stereo not drawn) [MBX-2837]	9	3.5	13			
CC[C@@H](Oc1ncc(Cl)cc1Cl)C(=O)NCc1ccc2cc(CN(C)C)[nH]c2c1 [MBX-2867]	1.3	1.6	5.8			CC50 at 3 days [4, 9]: 30 µM; cytotoxicity (HeLa cells): exhibit cytotoxicity; Sol [5]: 3000 µM
CC[C@@H](Oc1ncc(Cl)cc1Cl)C(=O)NC(CO)Cc1ccc(F)cc1 (stereo partly drawn) [MBX-3323]	5	5.2	13			potency of inhibition of T3SS-mediated translocation [3]: not quite potent enough
CC[C@@H](Oc1ncc(Cl)cc1Cl)C(=O)NCCc1ccc(NC(C)=O)cc1 [MBX-3337]	1.2	1.4	4.8			
CC[C@@H](Oc1ncc(Cl)cc1Cl)C(=O)NCc1ccc2cc(C(=O)N3CCOCC3)[nH]c2c1 [MBX-3458]	0.9	3.7	5.2			half-life in mice [6]: short half-lives in mice; CC50 at 3 days [4, 9]: 100 µM; Sol [5]: 25 µM
CC[C@@H](Oc1ncc(Cl)cc1Cl)C(=O)NCc1cccc(CN)c1 [MBX-4565]	9	8.3	20			
CC[C@@H](Oc1ncc(Cl)cc1Cl)C(=O)N[C@@H](CO)Cc1ccc(F)cc1 [MBX-4567]	14	8.5	60			potency of inhibition of T3SS-mediated translocation [3]: not quite potent enough
CC[C@@H](Oc1ncc(Cl)cc1Cl)C(=O)NCc1cccc(C(=O)NC2CNC2)c1 [MBX-5031]	1.7	0.2	1.7			
CC[C@@H](Oc1ncc(Cl)cc1Cl)C(=O)NCc1cccc(C(=O)NC2CN(CCC(=O)[O-])C2)c1.[Li+] [MBX-5427A]				≥ 200	100	
CC[C@@H](Oc1ncc(Cl)cc1Cl)C(=O)NCc1cccc(C(=O)NC2CN(CCCC(=O)[O-])C2)c1.[Li+] [MBX-5430A]				≥ 200	200	

SMILES	IC50 ([1]; Table 1) [µM]	IC50 [2, 8] [µM]	EC50 ([3]; Table 1) [µM]	CC50 at 3 days [4, 10] [µM]	solubility kinetic [5] [µM]	also measured
CC[C@@H](Oc1ncc(Cl)cc1Cl)C(=O)NCc1cccc(NC(=O)NC2CN(CCC(=O)[O-])C2)c1.[Li+] [MBX-5442A]				≥ 200	200	
CC[C@@H](Oc1ncc(Cl)cc1Cl)C(=O)NCc1cccc(NC(=O)NC2CC3(C2)CN(CCC(=O)O)C3)c1 [MBX-5452A]			2.7			EC50 [7]: 0.74 µg/mL (≈ 1.31 µM); EC50 ([3]; Table 6): 2.7 µM
CC[C@@H](Oc1ncc(Cl)cc1Cl)C(=O)NCc1cccc(C(=O)NC2CN(CC(=O)[O-])C2)c1.[Li+] [MBX-5454A]				≥ 100	200	
CC[C@@H](Oc1ncc(Cl)cc1Cl)C(=O)NCc1cccc(CNC2CC(C(=O)[O-])C2)c1.[Li+] (stereo partly drawn) [MBX-5456A]				107	200	
CC[C@@H](Oc1ncc(Cl)cc1Cl)C(=O)NCc1cccc(C(=O)NCC2CC3(C2)CN(CCC(=O)[O-])C3)c1.[Li+] [MBX-5522A]					≥ 400	
CC[C@@H](Oc1ncc(Cl)cc1Cl)C(=O)NCc1cccc(C(=O)NC2CC3(C2)CN(CCCC(=O)[O-])C3)c1.[Li+] [MBX-5524A]					≥ 400	
CC[C@@H](Oc1ncc(Cl)cc1Cl)C(=O)NCc1cccc(C(=O)NC2CC3(C2)CN(CC(=O)[O-])C3)c1.[Li+] [MBX-5527A]					≥ 400	
CC[C@@H](Oc1ncc(Cl)cc1Cl)C(=O)NCc1cccc(C(=O)N2CC3(CC(NCCC(=O)[O-])C3)C2)c1.[Li+] [MBX-5529A]					≥ 400	
CC[C@@H](Oc1ncc(Cl)cc1Cl)C(=O)NCc1cccc(CC(=O)NC2CC3(C2)CN(CCC(=O)[O-])C3)c1.[Li+] [MBX-5548A]					200	
CC[C@@H](Oc1ncc(Cl)cc1Cl)C(=O)NCc1cccc(NC(=O)N2CC3(CN(CC(C)(C)C(=O)[O-])C3)C2)c1.[Li+] [MBX-7061A]					1.1	
CC[C@@H](Oc1ncc(Cl)cc1Cl)C(=O)NCc1cccc(NC(=O)N2CC3(CN(CCC(=O)[O-])C3)C2)c1.[Li+] [MBX-7062A]					3.5	
CC[C@@H](Oc1ncc(Cl)cc1Cl)C(=O)NCc1cccc(NC(=O)NCC2CN(CC(=O)O)C2)c1 [MBX-7438A]				≥ 200		
CC[C@@H](Oc1ccc(Cl)c(Cl)c1Cl)C(=O)NCc1cccc(NC(=O)NC2CC3(C2)CN(CC(=O)O)C3)c1 [MBX-7476A]				≥ 200		
CC[C@@H](Oc1ccc(Cl)c(Cl)c1Cl)C(=O)NCCc1cccc(NC(=O)NC2CC3(C2)CN(CCC(=O)O)C3)c1 [MBX-7477A]				≥ 200		
CC[C@@H](Oc1ccc(Cl)c(Cl)c1Cl)C(=O)NCCc1cccc(NC(=O)NC2CC3(C2)CN(CC(=O)O)C3)c1 [MBX-7478A]				≥ 200		
CC[C@@H](Oc1ncc(Cl)cc1Cl)C(=O)NCc1cccc(NC(=O)NCCNCC(=O)O)c1 [MBX-7497A]				≥ 200		
CC[C@@H](Oc1ncc(Cl)cc1Cl)C(=O)NCc1cccc(NC(=O)NC2COCC(NCCC(=O)O)C2)c1 (stereo partly drawn) [MBX-7531A]				≥ 200		
